Test results from PMC12629174, “Exploring Bioactive Metabolites From Fusarium falciforme and Aspergillus terreus Isolated From Protease‐Rich Fruits: Antifungal, Antitrypanosomal, and Enzymatic Inhibitory Activities” (Chemistry & Biodiversity, 2025).
Where two headings read alike, the source gives them in different places.

How the values were obtained:
papain [1] = target: T1, papain (Carica papaya, UniProt P00784); experiment: fluorimetric papain assay with ZFR-MCA; titration of papain by the irreversible inhibitor (positive control); assay type: biochemical; details: read-out: % inhibition at 1 μM (25 nM in the well)
T1 sequence (P00784 134-345): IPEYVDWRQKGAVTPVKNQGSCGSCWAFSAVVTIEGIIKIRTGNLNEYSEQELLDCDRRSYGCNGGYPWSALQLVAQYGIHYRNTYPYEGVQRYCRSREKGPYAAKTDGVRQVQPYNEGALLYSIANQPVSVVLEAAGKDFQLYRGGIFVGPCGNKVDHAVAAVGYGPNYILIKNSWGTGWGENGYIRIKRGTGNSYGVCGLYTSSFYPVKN

papain [2] = target: T1, papain; experiment: fluorimetric papain assay with ZFR-MCA substrate; assay type: biochemical

SMILES | IC50 (papain [2]; read-out: IC50) [µM] | other results
CC(C)C[C@H](NC(=O)C1OC1C(=O)O)C(=O)NCCCCNC(=N)N (stereo partly drawn) [E-64, 1‐[L‐N‐(trans‐epoxysuccinyl)leucyl] amino‐4‐guanidinobutane] |  | inhibition at 1 µM (papain [1]): 90%
COC(=O)[C@]1(Cc2ccc(O)c(CC=C(C)C)c2)OC(=O)C(O)=C1c1ccc(O)cc1 [compound 3, butyrolactone I] |  | IC50 (papain [2]): 6.24 µM
CC(=C\C(=O)O)/C=C(\C)C[C@H](C)CCCC[C@@H](O)C(CO)C(=O)O (stereo partly shown) [compound 2, fusaridioic acid A] | 28.6 | 
CC(=C\C(=O)O)/C=C(\C)C[C@H](C)CCCC[C@H]1OC(=O)[C@@H]1CO [compound 1, hymeglusin] | 9.38 | 
